Where only a bound is given, the exact number is not on record here.

This test concerns phosphorylated Akt protein (Ser473). The test is described as follows: Cellular PI3K / Akt pathway assay (phospho-Akt ELISA). It is filed as cell-based. To be noted: Homo sapiens; MCF7 cells, stimulated with ß-Heregulin (20ng/ml), compound incubated 48h, phospho-Akt1 (Ser473) ELISA. As for the experimental part:
In order to study the cellular activity of the compounds according to the present invention, an Enzyme Linked Immunosorbent Assay (ELISA)-based assay has been used specific phospho-AKT. The assay is based on a Sandwich ELISA kit (PathScan™ Phospho-Akt1 (Ser473); Cell Signaling, USA; #7160).
The ELISA Kit detects endogenous levels of phosphorylated Akt protein. A phospho-Akt (Ser473) antibody (Cell Signaling, USA; #9271) has been coated onto the microwells. After incubation with cell lysates, the coated antibody captures the phosphorylated Akt protein. Following extensive washing, Akt1 monoclonal antibody (Cell Signaling, USA; #2967) is added to detect the captured phospho-Akt1 protein. HRP-linked anti-mouse antibody (HRP: horseradish peroxidase; Cell Signaling, USA; #7076) is then used to recognize the bound detection antibody. HRP substrate (= 3,3',5,5'-tetramethylbenzidine (TMB); Cell Signaling, USA; #7160) is added to develop colour. The magnitude of optical density for this developed color is proportional to the quantity of phosphorylated Akt protein.
MCF7 cells (ATCC HTB-22) are seeded into 96 well fate bottom plates at a density of 10000 cells/well. 24 hours after seeding, the cells are serum starved using low-serum medium (IMEM media including 0,1% charcoal treated FCS (FCS: fetal calf serum)). After 24 hours 1 µl each of the compound dilutions (test compounds were dissolved as 10 mM solutions in dimethylsulfoxide (DMSO) and subsequently diluted) are added into each well of the 96 well plates and incubated for 48h at 37°C in a humidified athmosphere containing 5% CO2. To stimulate Akt phosphorylation, ß-Heregulin (20ng/ml β-HRG) is added in parallel to the compounds. Wells containing unstimulated control cells (no β-Heregulin stimulation) are incubated with or without the diluted compound. Wells containing untreated control cells (no compound) are filled with medium containing 0.5% v:v DMSO and are or are not stimulated with β-Heregulin.
Cells are harvested and lysed with brief sonification in 1x x cell lysis buffer (20mM Tris (pH7.5), 150 mM NaCl, 1 mM ethylene diaminetetraacetate (EDTA), 1 mM ethylene glycolbis(2-aminoethyl)-N,N,N',N'-tetraacetic acid (EGTA), 1vol% Triton X-100, 2.5mM sodium pyrophosphate, 1 mM β-glycerolphosphate, 1 mM Na3VO4, 1 µg/ml leupeptin). The lysate is centrifuged for 10 min. at 4°C and the supernatant is transferred to a new tube. 100 µl of sample diluent (0.1vol% Tween-20, 0.1vol% sodium azide in phosphate buffered saline (PBS)) are added to a microcentrifuge tube and 100 µl of cell lysate are transferred into the tube and vortexed. 100 µl of each diluted cell lysate are added to the appropriate ELISA well, and incubated overnight at 4°C. The plates are washed 4 times with 1 x wash buffer (1 vol% tween-20, 0.33vol% thymol, in PBS). Next 100 µl of detection antibody (Akt1 (2H10) monoclonal detection antibody; Cell Signaling, USA; #2967) are added to each well and incubation continued for 1 h at 37°C. The washing procedure is repeated between each step. 100µl of secondary antibody (anti-mouse IgG HRP-linked antibody; Cell Signaling, USA; #7076) are added to each well and incubated for 30 min. at 37°C. Than, 100µl of TMB substrate (0.05% 3,3',5,5' tetramethylbenzidine, 0.1 % hydrogen peroxide, complex polypeptides in a buffered solution; Cell Signaling, USA; #7160) are added to each well and incubated for 30 min. at 25°C. Finally 100 µl of STOP solution (0.05vol% α and β unsaturated carbonyl compound) are added to each well and the plate are shaked gently. The absorbance is measured at λ=450 nm (Wallac Victor2; Perkin Elmer, USA) within 30 min. after adding the STOP solution. The analysis of the data is performed using a statistical program (Excel; Microsoft, USA). Preferred compounds show an inhibitory activity towards Akt phosphorylation below 10µM.
For orientation: In an ELISA, binding on a coated surface is turned into a signal by an enzyme label.
For orientation: IC50 means the midpoint of a concentration-inhibition curve. A higher IC50 goes with weaker potency. For the molecule `CCc1cnc2nc(-c3ccc(CN4CCC(c5n[nH]c(-c6ccccn6)n5)CC4)cc3)c(-c3ccccc3)cn12` [Example 22, 3-ethyl-6-phenyl-7-(4-{[4-(5-pyridin-2-yl-1,2,4-triazol-3-yl)piperidin-1-yl]methyl}phenyl)imidazo[1,2-a]pyrimidine], the IC50 is less than 1 µM.

Molecule `c1ccc(-c2cn3ncnc3nc2-c2ccc(CN3CCC(c4n[nH]c(-c5ccccn5)n4)CC3)cc2)cc1` [Example 2, 6-phenyl-5-(4-([4-(5-pyridin-2-yl-1,2,4-triazol-3-yl)piperidin-1-yl]methyl}phenyl)[1,2,4]triazolo[1,5-a]pyrimidine] showed an IC50 of less than 1 µM.

Turning to `c1ccc(-c2cn3nc(C4CCC4)nc3nc2-c2ccc(CN3CCC(c4n[nH]c(-c5ccccn5)n4)CC3)cc2)cc1` [Example 7, 2-cyclobutyl-6-phenyl-5-(4-{[4-(5-pyridin-2-yl-1,2,4-triazol-3-yl)piperidin-1-yl]methyl}phenyl)[1,2,4]triazolo[1,5-a]pyrimidine], the IC50 is less than 1 µM.

Consider `c1ccc(-c2cn3ccnc3nc2-c2ccc(CN3CCC(c4n[nH]c(-c5cnccn5)n4)CC3)cc2)cc1` [Example 21, 6-phenyl-7-(4-{[4-(5-pyrazin-2-yl-1,2,4-triazol-3-yl)piperidin-1-yl]methyl}phenyl)imidazo[1,2-a]pyrimidine], for which the IC50 was less than 1 µM.

Molecule `N#Cc1cnc2nc(-c3ccc(CN4CCC(c5n[nH]c(-c6ccccn6)n5)CC4)cc3)c(-c3ccccc3)cn12` [Example 8, 6-phenyl-7-(4-{[4-(5-pyridin-2-yl-1,2,4-triazol-3-yl)piperidin-1-yl]methyl}phenyl)imidazo[1,2-a]pyrimidine-3-carbonitrile] registered an IC50 of less than 1 µM.

In turn, `c1ccc(-c2cn3ccnc3nc2-c2ccc(CN3CCC(n4cnc(-c5ccccn5)c4)CC3)cc2)cc1` [Example 20, 6-phenyl-7-(4-{[4-(4-pyridin-2-yl-imidazol-1-yl)piperidin-1-yl]methyl}phenyl)imidazo[1,2-a]pyrimidine] displayed an IC50 of less than 1 µM.

In turn, `Cc1nc2nc(-c3ccc(CN4CCC(c5n[nH]c(-c6ccccn6)n5)CC4)cc3)c(-c3ccccc3)cn2n1` [Example 3, 2-methyl-6-phenyl-5-(4-{[4-(5-pyridin-2-yl-1,2,4-triazol-3-yl)piperidin-1-yl]methyl}phenyl)[1,2,4]triazolo[1,5-a]pyrimidine] came in with an IC50 of less than 1 µM.

For the molecule `c1ccc(-c2cn3ccnc3nc2-c2ccc(CN3CCC(c4nc(-c5ccccn5)n[nH]4)CC3)cc2)cc1` [Example 1, 6-phenyl-7-(4-{[4-(3-pyridin-2-yl-1,2,4-triazol-5-yl)piperidin-1-yl]methyl}phenyl)imidazo[1,2-a]pyrimidine], the IC50 is less than 1 µM.

Consider `c1ccc(-c2cn3nccc3nc2-c2ccc(CN3CCC(c4n[nH]c(-c5ccccn5)n4)CC3)cc2)cc1` [Example 19, 6-phenyl-5-(4-{[4-(5-pyridin-2-yl-1,2,4-triazol-3-yl)piperidin-1-yl]methyl}phenyl)pyrazolo[1,5-a]pyrimidine], for which the IC50 was less than 1 µM.

In the case of `Fc1cnc2nc(-c3ccc(CN4CCC(c5n[nH]c(-c6ccccn6)n5)CC4)cc3)c(-c3ccccc3)cn12` [Example 9, 3-fluoro-6-phenyl-7-(4-{[4-(5-pyridin-2-yl-1H-1,2,4-triazol-3-yl)piperidin-1-yl]methyl}phenyl)imidazo[1,2-a]pyrimidine], the IC50 was less than 1 µM.

The molecule `c1ccc(-c2cn3ccnc3nc2-c2ccc(CN3CCC(c4n[nH]c(-c5ncccn5)n4)CC3)cc2)cc1` [Example 18, 6-phenyl-7-(4-{[4-(5-pyrimidin-2-yl-1,2,4-triazol-3-yl)piperidin-1-yl]methyl}phenyl)imidazo[1,2-a]pyrimidine] gave a half-inhibitory concentration (IC50) of 1 to 10 µM.

The molecule `c1ccc(-c2cn3ccnc3nc2-c2ccc(CN3CCC(c4n[nH]c(-c5ccncc5)n4)CC3)cc2)cc1` [Example 6, 6-phenyl-7-(4-{[4-(5-pyridin-4-yl-1,2,4-triazol-3-yl)piperidin-1-yl]methyl}phenyl)imidazo[1,2-a]pyrimidine] registered an IC50 of less than 1 µM.

Consider `Cc1cnc2nc(-c3ccc(CN4CCC(c5n[nH]c(-c6ccccn6)n5)CC4)cc3)c(-c3ccccc3)cn12` [Example 14, 3-methyl-6-phenyl-7-(4-{[4-(5-pyridin-2-yl-1,2,4-triazol-3-yl)piperidin-1-yl]methyl}phenyl)imidazo[1,2-a]pyrimidine], for which the IC50 was less than 1 µM.

As to `CCc1cn2cc(-c3ccccc3)c(-c3ccc(CN4CCC(c5n[nH]c(-c6ccccn6)n5)CC4)cc3)nc2n1` [Example 17, 2-ethyl-6-phenyl-7-(4-{[4-(5-pyridin-2-yl-1,2,4-triazol-3-yl)piperidin-1-yl]methyl}phenyl)imidazo[1,2-a]pyrimidine], the IC50 is less than 1 µM.

For the molecule `Brc1cnc2nc(-c3ccc(CN4CCC(c5n[nH]c(-c6ccccn6)n5)CC4)cc3)c(-c3ccccc3)cn12` [Example 11, 3-bromo-6-phenyl-7-(4-{[4-(5-pyridin-2-yl-1,2,4-triazol-3-yl)piperidin-1-yl]methyl}phenyl)imidazo[1,2-a]pyrimidine], the IC50 is less than 1 µM.

For `c1ccc(-c2cn3ccnc3nc2-c2ccc(CN3CCC(c4cc(-c5ccccn5)n[nH]4)CC3)cc2)cc1` [Example 5, 6-phenyl-7-(4-{[4-(3-pyridin-2-yl-pyrazol-5-yl)piperidin-1-yl]methyl}phenyl)imidazo[1,2-a]pyrimidine], the IC50 is less than 1 µM.

Consider `CNc1c(-c2ccccc2)c(-c2ccc(CN3CCC(c4n[nH]c(-c5ccccn5)n4)CC3)cc2)nc2nccn12` [Example 10, N-methyl-6-phenyl-7-(4-{[4-(5-pyridin-2-yl-1,2,4-triazol-3-yl)piperidin-1-yl]methyl}phenyl)imidazo[1,2-a]pyrimidin-5-amine], for which the IC50 lay within 1 to 10 µM.

With `Clc1cnc2nc(-c3ccc(CN4CCC(c5n[nH]c(-c6ccccn6)n5)CC4)cc3)c(-c3ccccc3)cn12` [Example 12, 3-chloro-6-phenyl-7-(4-{[4-(5-pyridin-2-yl-1,2,4-triazol-3-yl)piperidin-1-yl]methyl}phenyl)imidazo[1,2-a]pyrimidine], the IC50 was less than 1 µM.

`c1ccc(-c2cn3nc(C4CC4)nc3nc2-c2ccc(CN3CCC(c4n[nH]c(-c5ccccn5)n4)CC3)cc2)cc1` [Example 4, 2-cyclopropyl-6-phenyl-5-(4-{[4-(5-pyridin-2-yl-1,2,4-triazol-3-yl)piperidin-1-yl]methyl}phenyl)[1,2,4]triazolo[1,5-a]pyrimidine]: the IC50 was less than 1 µM.

In turn, `C=Cc1cnc2nc(-c3ccc(CN4CCC(c5n[nH]c(-c6ccccn6)n5)CC4)cc3)c(-c3ccccc3)cn12` [Example 15, 6-phenyl-7-(4-{[4-(5-pyridin-2-yl-1,2,4-triazol-3-yl)piperidin-1-yl]methyl}phenyl)-3-vinylimidazo[1,2-a]pyrimidine] showed an IC50 of less than 1 µM.

`C#Cc1cnc2nc(-c3ccc(CN4CCC(c5n[nH]c(-c6ccccn6)n5)CC4)cc3)c(-c3ccccc3)cn12` [Example 13, 3-ethynyl-6-phenyl-7-(4-{[4-(5-pyridin-2-yl-1,2,4-triazol-3-yl)piperidin-1-yl]methyl}phenyl)imidazo[1,2-a]pyrimidine] registered a half-maximal inhibitory concentration (IC50) of less than 1 µM.

For the origin of these results see patent publication EP2050748A1, “Novel fused pyrimidines” (Bayer Schering Pharma Aktiengesellschaft, priority 2007, dated 2009).
